Read-outs that look alike come from different tables or passages of the source.
Legend:
[1] = cited from earlier work
[2] = DEHP used as plasticizer in PVC bags; cited from earlier work
[3] = remark: listed apart in the source
Method: A composition was prepared containing 4.0 μg Dexmedetomidine and 50 mg dextrose to adjust tonicity with sufficient water to bring the total volume to 1 mL.

Cc1cccc([C@H](C)c2cnc[nH]2)c1C [dexmedetomidine, (S)-4-[1-(2,3-dimethylphenyl)ethyl]-3H-imidazole]
potency loss ([1]; CR3 elastomer copolyester ether bags and PVC bags, autoclaving): 20%
drug recovered in MeOH rinse of emptied bags ([1]; CR3 elastomer copolyester ether bags): Nearly all
drug recovered in MeOH rinse of emptied bags ([1]; PVC bags): 1%
total percent of impurities ([1]; autoclaved premixed composition in PVC and CR3 bags): less than 20%
drug loss ([1]; formulation with a buffer system, plastic bags): ~10%
dexmedetomidine lost through adsorption ([1]; premixed solution in plastic materials): up to 20%
solubility in DEHP [2]: soluble
dexmedetomidine retained after autoclaving in moist steam (5.5 mg/mL sodium chloride and 28 gram/mL sodium acetate and 320 mg/mL glacial acetic acid as buffer): 90.1%
retention of the dexmedetomidine after autoclaving in moist steam (buffer (28 g/mL sodium acetate and 320 mg/mL glacial acetic acid) with dextrose as tonicity adjusting agent, Nexcel bag): 99.4%
retention of the dexmedetomidine after autoclaving in moist steam (buffer (28 g/mL sodium acetate and 320 mg/mL glacial acetic acid) with sucrose as tonicity adjusting agent, Nexcel bag): 99.0%
dexmedetomidine retained after autoclaving in moist steam (solution comprising 9 mg/mL sodium chloride, Nexcel bag): 93%
time the solution will be stable at room temperature ([3]; Example 1 solution (dextrose) in Nexcel bag, extrapolated from the accelerated test): about 24 months
adsorption or absorption by the ethylene-vinyl acetate copolymer inner-most bag layer ([3]; Example 1 solution, Nexcel bag, storage tests): not adsorbed or absorbed
